Measurements: EPA's ToxRefDB 2

What was measured:
rat [1] = conditions: Subchronic dermal toxicity, sprague dawley, Topical, dose end: 91 day
rat [2] = conditions: Prenatal developmental toxicity study, sprague dawley, Oral, Gavage/Intubation, dose end: 15 GD
rat [3] = conditions: Prenatal developmental toxicity study, sprague dawley, Oral, Gavage/Intubation, dose end: 15 GD; remark: listed apart in the source
rat [4] = conditions: Combined chronic toxicity/carcinogenicity, sprague dawley, Oral, Feed, dose end: 104 week
rat [5] = conditions: Prenatal developmental toxicity study, sprague dawley, Oral, Gavage/Intubation, dose end: 15 GD; remark: listed apart in the source
rabbit [6] = conditions: Prenatal developmental toxicity study, new zealand white, Oral, Gavage/Intubation, dose end: 19 GD, group: maternal
rat [7] = conditions: Subchronic oral toxicity in rodents, sprague dawley, Gavage/Intubation, dose end: 90 day
rat [8] = conditions: Subchronic inhalation toxicity, sprague dawley, Whole-Body, dose end: 13 week
rabbit [9] = conditions: Prenatal developmental toxicity study, New Zealand White, Oral, Gavage/Intubation, dose end: 19 GD, group: maternal
rat [10] = conditions: Subchronic oral toxicity in rodents, sprague dawley, Gavage/Intubation, dose end: 90 day, group: systemic
rat [11] = conditions: Neurotoxicity screening battery; sprague dawley; Oral; Feed; dose end: 13 week; group: cannot be grouped; cholinesterase / cholinesterase / cholinesterase / plasma cholinesterase (che) + systemic / in life observation / food consumption / food …
mouse = conditions: Carcinogenicity, cd1, Oral, Feed, dose end: 78 week, group: systemic
rabbit [12] = conditions: Prenatal developmental toxicity study, new zealand white, Oral, Gavage/Intubation, dose end: 19 GD, group: maternal; remark: listed apart in the source
[13] = group: cholinesterase, cholinesterase / cholinesterase / cholinesterase / plasma cholinesterase (che)
[14] = group: cholinesterase, cholinesterase / cholinesterase / cholinesterase / plasma cholinesterase (che) + cholinesterase / cholinesterase / cholinesterase / …
[15] = group: systemic, systemic / pathology microscopic / skin / hyperkeratosis + systemic / clinical chemistry / calcium / calcium + systemic / clinical chemistry…
[16] = group: systemic, systemic / pathology microscopic / skin / hyperkeratosis + systemic / clinical chemistry / glucose / glucose + systemic / in life …
[17] = group: developmental, developmental / developmental malformation / bone / incomplete ossification + developmental / developmental malformation / bone / wavy
[18] = group: maternal, systemic / in life observation / body weight / body weight gain
[19] = group: developmental, developmental / developmental landmark / [other] / [other]
[20] = group: maternal, systemic / in life observation / body weight / body weight gain + systemic / in life observation / clinical signs / salivation + systemic / …
[21] = group: cholinesterase, cholinesterase / cholinesterase / cholinesterase / erythrocyte cholinesterase (che) + cholinesterase / cholinesterase / cholinesterase / …
[22] = group: systemic, systemic / in life observation / body weight / body weight gain
[23] = group: systemic, systemic / in life observation / body weight / body weight gain + systemic / clinical chemistry / cholesterol / cholesterol + systemic / …
[24] = group: developmental, developmental / developmental malformation / bone / unossified + systemic / in life observation / body weight / fetal weight
[25] = group: maternal, systemic / in life observation / body weight / body weight gain + systemic / in life observation / food consumption / food consumption + …
[26] = reproductive / reproductive performance / resorptions / resorptions + systemic / in life observation / body weight / body weight gain + …
[27] = group: cholinesterase, cholinesterase / cholinesterase / cholinesterase / cholinesterase (che)
[28] = group: systemic, systemic / in life observation / clinical signs / salivation + systemic / pathology gross / liver / misshapen
[29] = group: systemic, systemic / in life observation / clinical signs / salivation + systemic / pathology gross / liver / misshapen + systemic / pathology …
[30] = group: cholinesterase, cholinesterase / cholinesterase / cholinesterase / brain cholinesterase (che)
[31] = group: cholinesterase, cholinesterase / cholinesterase / cholinesterase / brain cholinesterase (che) + cholinesterase / cholinesterase / cholinesterase / …
[32] = group: systemic, systemic / clinical chemistry / glucose / glucose + systemic / clinical chemistry / alanine aminotransferase (alt/sgpt) / alanine …
[33] = systemic / in life observation / body weight / body weight gain + systemic / in life observation / food consumption / food consumption + …
[34] = systemic / pathology microscopic / thyroid gland / vacuolization + systemic / pathology microscopic / thyroid gland / hypertrophy
[35] = systemic / pathology microscopic / thyroid gland / vacuolization + systemic / pathology microscopic / thyroid gland / hypertrophy + systemic…
[36] = systemic / in life observation / clinical signs / defecation + systemic / in life observation / food consumption / food consumption + …

Q: With `CCCCNC(=O)OCC#CI` [3-Iodo-2-propynyl-N-butylcarbamate] as the molecule, how does the NEL (rat [1]; [13]) read?
A: 200 mg/kg/day

Q: And the LEL (rat [1]; [14])?
A: 500 mg/kg/day

Q: And the LOAEL (rat [1]; [14])?
A: > 500 mg/kg/day

Q: What about the NOAEL (rat [1]; [14]) of the same molecule?
A: ≥ 500 mg/kg/day

Q: And the NEL (rat [1]; [15])?
A: 50 mg/kg/day

Q: What about the NOAEL (rat [1]; [15]) of the same molecule?
A: 50 mg/kg/day

Q: And the LEL (rat [1]; [16])?
A: 200 mg/kg/day

Q: And the LOAEL (rat [1]; [16])?
A: 200 mg/kg/day

Q: What about the LEL (rat [2]; [17]) of the same molecule?
A: 125 mg/kg/day

Q: What about the LOAEL (rat [2]; [17]) of the same molecule?
A: 125 mg/kg/day

Q: And the NEL (rat [2]; [17])?
A: 50 mg/kg/day

Q: What about the NOAEL (rat [2]; [17]) of the same molecule?
A: 50 mg/kg/day

Q: What about the LEL (rat [2]; [18]) of the same molecule?
A: 125 mg/kg/day

Q: What about the LOAEL (rat [2]; [18]) of the same molecule?
A: 125 mg/kg/day

Q: And the NEL (rat [2]; [18])?
A: 50 mg/kg/day

Q: What about the NOAEL (rat [2]; [18]) of the same molecule?
A: 50 mg/kg/day

Q: What about the LEL (rat [3]; [19]) of the same molecule?
A: 250 mg/kg/day

Q: And the LOAEL (rat [3]; [19])?
A: 250 mg/kg/day

Q: What about the NEL (rat [3]; [19]) of the same molecule?
A: 75 mg/kg/day

Q: And the NOAEL (rat [3]; [19])?
A: 75 mg/kg/day

Q: And the LEL (rat [3]; [20])?
A: 75 mg/kg/day

Q: What about the LOAEL (rat [3]; [20]) of the same molecule?
A: 75 mg/kg/day

Q: What about the NEL (rat [3]; [20]) of the same molecule?
A: 25 mg/kg/day

Q: What about the NOAEL (rat [3]; [20]) of the same molecule?
A: 25 mg/kg/day

Q: What about the LOAEL (rat [4]; [21]) of the same molecule?
A: > 80.1 mg/kg/day

Q: And the NOAEL (rat [4]; [21])?
A: ≥ 80.1 mg/kg/day

Q: And the LEL (rat [4]; [13])?
A: 20.1 mg/kg/day

Q: And the NEL (rat [4]; [13])?
A: < 20.1 mg/kg/day

Q: And the LOAEL (rat [4]; [22])?
A: 20.1 mg/kg/day

Q: And the NOAEL (rat [4]; [22])?
A: < 20.1 mg/kg/day

Q: And the LEL (rat [4]; [23])?
A: 20.1 mg/kg/day

Q: And the NEL (rat [4]; [23])?
A: < 20.1 mg/kg/day

Q: What about the LEL (rat [5]; [24]) of the same molecule?
A: 250 mg/kg/day

Q: And the LOAEL (rat [5]; [24])?
A: 250 mg/kg/day

Q: What about the NEL (rat [5]; [24]) of the same molecule?
A: 75 mg/kg/day

Q: What about the NOAEL (rat [5]; [24]) of the same molecule?
A: 75 mg/kg/day

Q: What about the LOAEL (rat [5]; group: maternal, systemic / in life observation / body weight / body weight gain + systemic / in life observation / food consumption / food consumption) of the same molecule?
A: 75 mg/kg/day

Q: And the LEL (rat [5]; [25])?
A: 75 mg/kg/day

Q: What about the NEL (rat [5]; [25]) of the same molecule?
A: 25 mg/kg/day

Q: What about the NOAEL (rat [5]; [25]) of the same molecule?
A: 25 mg/kg/day

Q: What about the LEL (rabbit [6]; reproductive / reproductive performance / resorptions / resorptions) of the same molecule?
A: 20 mg/kg/day

Q: What about the NEL (rabbit [6]; [26]) of the same molecule?
A: 2 mg/kg/day

Q: What about the NOAEL (rabbit [6]; [26]) of the same molecule?
A: 20 mg/kg/day

Q: What about the LOAEL (rabbit [6]; systemic / in life observation / body weight / body weight gain + systemic / in life observation / clinical signs / [other] + systemic / in …) of the same molecule?
A: 50 mg/kg/day

Q: What about the LEL (rat [7]; [27]) of the same molecule?
A: 75 mg/kg/day

Q: What about the LOAEL (rat [7]; [27]) of the same molecule?
A: > 200 mg/kg/day

Q: And the NEL (rat [7]; [27])?
A: 25 mg/kg/day

Q: And the NOAEL (rat [7]; [27])?
A: ≥ 200 mg/kg/day

Q: What about the LOAEL (rat [7]; [28]) of the same molecule?
A: 25 mg/kg/day

Q: And the NOAEL (rat [7]; [28])?
A: < 25 mg/kg/day

Q: And the LEL (rat [7]; [29])?
A: 25 mg/kg/day

Q: What about the NEL (rat [7]; [29]) of the same molecule?
A: < 25 mg/kg/day

Q: And the LEL (rat [8]; [30])?
A: 0.11 ppm

Q: What about the LOAEL (rat [8]; [30]) of the same molecule?
A: 0.11 ppm

Q: And the NEL (rat [8]; [31])?
A: 0.0217 ppm

Q: And the NOAEL (rat [8]; [31])?
A: 0.0217 ppm

Q: And the LEL (rat [8]; group: systemic, systemic / clinical chemistry / glucose / glucose)?
A: 0.11 ppm

Q: And the LOAEL (rat [8]; [32])?
A: > 0.54 ppm

Q: What about the NEL (rat [8]; [32]) of the same molecule?
A: 0.0217 ppm

Q: What about the NOAEL (rat [8]; [32]) of the same molecule?
A: ≥ 0.54 ppm

Q: And the LOAEL (rabbit [9]; systemic / in life observation / body weight / body weight gain + systemic / in life observation / food consumption / food consumption)?
A: 20 mg/kg/day

Q: What about the LEL (rabbit [9]; [33]) of the same molecule?
A: 20 mg/kg/day

Q: What about the NEL (rabbit [9]; [33]) of the same molecule?
A: 10 mg/kg/day

Q: And the NOAEL (rabbit [9]; [33])?
A: 10 mg/kg/day

Q: What about the NEL (rat [10]; systemic / in life observation / clinical signs / post-dosing rooting in bedding + systemic / organ weight / liver / relative to body weight…) of the same molecule?
A: 20 mg/kg/day

Q: What about the LOAEL (rat [10]; systemic / organ weight / liver / relative to body weight) of the same molecule?
A: 50 mg/kg/day

Q: And the NOAEL (rat [10]; systemic / organ weight / liver / relative to body weight + systemic / in life observation / body weight / body weight gain + systemic / in …)?
A: 20 mg/kg/day

Q: And the LEL (rat [10]; systemic / organ weight / liver / relative to body weight + systemic / in life observation / clinical signs / post-dosing rooting in bedding…)?
A: 50 mg/kg/day

Q: What about the LEL (rat [11]) of the same molecule?
A: 50 mg/kg/day

Q: And the LOAEL (rat [11])?
A: 50 mg/kg/day

Q: And the NEL (rat [11])?
A: 10 mg/kg/day

Q: And the NOAEL (rat [11])?
A: 10 mg/kg/day

Q: What about the LOAEL (mouse; [34]) of the same molecule?
A: 19.8 mg/kg/day

Q: And the NOAEL (mouse; [34])?
A: < 19.8 mg/kg/day

Q: What about the LEL (mouse; [35]) of the same molecule?
A: 19.8 mg/kg/day

Q: And the NEL (mouse; [35])?
A: < 19.8 mg/kg/day

Q: And the LEL (rabbit [12]; [36])?
A: 20 mg/kg/day

Q: What about the NEL (rabbit [12]; [36]) of the same molecule?
A: 10 mg/kg/day

Q: And the NOAEL (rabbit [12]; [36])?
A: 20 mg/kg/day

Q: What about the LOAEL (rabbit [12]; systemic / in life observation / clinical signs / defecation + systemic / pathology gross / stomach / discolored + reproductive / …) of the same molecule?
A: 40 mg/kg/day
